# According to patent US5352804A, “Isolation and structure of Halistatin 2” (Arizona Board of Regents, a body corporate, acting on …, priority 1993, dated 1994):
# Read-outs that look alike come from different tables or passages of the source.
# Columns and labels:
# Assay in all cases: NCI human tumor in vitro primary screen
# Type in all cases: cell-based
# SN12C = conditions: renal cancer
# Text: (§1) Only two hundred years ago, many diseases ravaged humankind. Many of these diseases now have been controlled or eradicated. In the development of the means to treat or control these diseases, work with the appropriate common experimental animals was of critical importance. With the various types of cancers, and with the HIV virus, such work is presently ongoing. The research for the treatment of various types of cancer is coordinated in the United States by the National Cancer Institute (NCI). NCI, as a government entity, has been charged with assisting anti-cancer research. To establish whether a substance has anti cancer activity, NCI has established a variety of protocols, one of which involves testing the candidate substance against a cell line panel containing 60 human tumor cell lines. This protocol has been verified and is generally accepted throughout the scientific community. This protocol and the established statistical means of evaluating the results obtained therefrom have been fully described in the literature. See Principles & Practice of Oncology PPO Updates, Volume 3, Number 10, Oct. 1989, by Michael R. Boyd, M.D., Ph.D., for an indepth description of the test protocol. The statistical analysis is explained in "Display and Analysis of Patterns of Differential Activity of Drugs Against Human Tumor Cell Lines: Development of Means Graph and COMPARE Algorithm" Journal of the National Cancer Institute Reports Vol. 81, No. 14, Pg. 1088, Jul. 14, 1989, by K. D. Paull et al. Both of these references are incorporated herein by this reference thereto.
# (§2) Biological Testing; Data Display and Analysis; Screening Data Summary. Freshly isolated halistatin 2 was tested in the NCI's human tumor, disease-oriented in vitro primary screen, and data calculations performed. Table 3 is a composite prepared from mean graphs constructed from the averaged GI50 values from quadruplicate screenings of Halistatin 2.
# NCI-H23 = test system: NCI-H23
# Text: as §1, §2
# NCI-H460 = test system: NCI-H460
# Text: as §1, §2
# M14 = conditions: melanoma
# Text: as §1, §2
# SNB-75 = conditions: CNS cancer
# Text: as §1, §2
# SK-MEL-28 = conditions: melanoma
# Text: as §1, §2
# KM 20L2 = test system: KM 20L2
# Text: as §1, §2
# HL-60TB = conditions: leukemia
# Text: as §1, §2
# OVCAR-8 = conditions: ovarian cancer
# Text: as §1, §2
# SW-620 = conditions: colon cancer
# Text: as §1, §2
# SNB-78 = conditions: CNS cancer
# Text: as §1, §2
# SF-268 = conditions: CNS cancer
# Text: as §1, §2
# NCI-H522 = test system: NCI-H522
# Text: as §1, §2
# DLD-1 = conditions: colon cancer
# Text: as §1, §2
# EKVX = conditions: non-small cell lung cancer
# Text: as §1, §2
# SK-OV-3 = conditions: ovarian cancer
# Text: as §1, §2
# IGROV-1 = test system: IGROV-1
# Text: as §1, §2
# HCC-2998 = conditions: colon cancer
# Text: as §1, §2
# COLO 205 = conditions: colon cancer
# Text: as §1, §2
# RPMI-8226 = conditions: leukemia
# Text: as §1, §2
# KM12 = conditions: colon cancer
# Text: as §1, §2
# TK-10 = conditions: renal cancer
# Text: as §1, §2
# UO-31 = conditions: renal cancer
# Text: as §1, §2
# 786-0 = conditions: renal cancer
# Text: as §1, §2
# [1] = read-out: Log10 GI50 (converted)
# [2] = read-out: Log10 TGI (converted)
# [3] = read-out: averaged negative log10 GI50 (converted)
# [4] = non-small cell lung cancer, read-out: averaged negative log10 GI50 (converted)
compound,measurement,setting,value
C=C1CC2CCC34CC5OC6C(O3)C3OC(CCC3OC6(O)C5O4)CC(=O)OC3C(CC4OC(CCC1O2)CC(C)C4=C)OC1CC2OC4(CC2OC1C3C)CC1OC2(CC(C)C3OC5CC(C(O)CO)OC5CC3O2)CC(C)C1O4 (stereo not drawn) [halistatin 2],GI50,SN12C; [1],1.82 nM
same,IC (TGI),SN12C; [2],10 nM
same,GI50,SN12C; [3],1.82 nM
same,GI50,"NCI-H23; NCl-H23, non-small cell lung cancer, read-out: Log10 GI50 (converted)",0.661 nM
same,IC (TGI),"NCI-H23; NCl-H23, non-small cell lung cancer, read-out: Log10 TGI (converted)",6.76 nM
same,GI50,NCI-H23; [4],0.661 nM
same,GI50,"NCI-H460; NCl-H460, non-small cell lung cancer, read-out: Log10 GI50 (converted)",0.38 nM
same,IC (TGI),"NCI-H460; NCl-H460, non-small cell lung cancer, read-out: Log10 TGI (converted)",6.76 nM
same,GI50,NCI-H460; [4],0.38 nM
same,GI50,M14; [1],0.676 nM
same,IC (TGI),M14; [2],5.75 nM
same,GI50,M14; [3],0.676 nM
same,GI50,SNB-75; [1],0.269 nM
same,IC (TGI),SNB-75; [2],10 nM
same,GI50,SNB-75; [3],0.269 nM
same,GI50,SK-MEL-28; [1],1 nM
same,IC (TGI),SK-MEL-28; [2],10 nM
same,GI50,SK-MEL-28; [3],1 nM
same,GI50,"KM 20L2; KM 20L2, colon cancer, read-out: averaged negative log10 GI50 (converted)",0.427 nM
same,GI50,"KM 20L2; KM-20L2, printed KM2012, colon cancer, read-out: Log10 GI50 (converted)",0.427 nM
same,IC (TGI),"KM 20L2; KM-20L2, printed KM2012, colon cancer, read-out: Log10 TGI (converted)",1.91 nM
same,GI50,"HL-60TB; HL-60(TB), read-out: Log10 GI50 (converted)",0.158 nM
same,IC (TGI),"HL-60TB; HL-60(TB), read-out: Log10 TGI (converted)",1 nM
same,GI50,"HL-60TB; HL-60TB, read-out: averaged negative log10 GI50 (converted)",0.158 nM
same,GI50,OVCAR-8; [1],1.29 nM
same,IC (TGI),OVCAR-8; [2],7.08 nM
same,GI50,OVCAR-8; [3],1.29 nM
same,GI50,SW-620; [1],0.398 nM
same,IC (TGI),SW-620; [2],10 nM
same,GI50,SW-620; [3],0.398 nM
same,GI50,SNB-78; [1],0.12 nM
same,IC (TGI),SNB-78; [2],10 nM
same,GI50,SNB-78; [3],0.12 nM
same,GI50,SF-268; [1],1.82 nM
same,IC (TGI),SF-268; [2],10 nM
same,GI50,SF-268; [3],1.82 nM
same,GI50,"NCI-H522; NCl-H522, non-small cell lung cancer, read-out: Log10 GI50 (converted)",0.2 nM
same,IC (TGI),"NCI-H522; NCl-H522, non-small cell lung cancer, read-out: Log10 TGI (converted)",0.55 nM
same,GI50,NCI-H522; [4],0.2 nM
same,GI50,DLD-1; [1],1.2 nM
same,IC (TGI),DLD-1; [2],10 nM
same,GI50,DLD-1; [3],1.2 nM
same,GI50,EKVX; [1],4.07 nM
same,IC (TGI),EKVX; [2],10 nM
same,GI50,EKVX; [3],4.07 nM
same,GI50,SK-OV-3; [1],0.676 nM
same,IC (TGI),SK-OV-3; [2],10 nM
same,GI50,SK-OV-3; [3],0.676 nM
same,GI50,"IGROV-1; IGROV1, ovarian cancer, read-out: Log10 GI50 (converted)",0.891 nM
same,IC (TGI),"IGROV-1; IGROV1, ovarian cancer, read-out: Log10 TGI (converted)",10 nM
same,GI50,"IGROV-1; ovarian cancer, read-out: averaged negative log10 GI50 (converted)",0.891 nM
same,GI50,HCC-2998; [1],1.29 nM
same,IC (TGI),HCC-2998; [2],5.25 nM
same,GI50,HCC-2998; [3],1.29 nM
same,GI50,COLO 205; [1],0.219 nM
same,IC (TGI),COLO 205; [2],1.51 nM
same,GI50,COLO 205; [3],0.219 nM
same,GI50,RPMI-8226; [1],0.407 nM
same,IC (TGI),RPMI-8226; [2],10 nM
same,GI50,RPMI-8226; [3],0.407 nM
same,GI50,KM12; [1],0.537 nM
same,IC (TGI),KM12; [2],10 nM
same,GI50,KM12; [3],0.537 nM
same,GI50,TK-10; [1],5.5 nM
same,IC (TGI),TK-10; [2],10 nM
same,GI50,TK-10; [3],5.5 nM
same,GI50,UO-31; [1],6.03 nM
same,IC (TGI),UO-31; [2],10 nM
same,GI50,UO-31; [3],6.03 nM
same,GI50,786-0; [1],0.389 nM
same,IC (TGI),786-0; [2],10 nM
same,GI50,786-0; [3],0.389 nM
